According to paper PMC4907692, “Engineering vanilloid-sensitivity into the rat TRPV2 channel” (eLife, 2016):

Biological target: T1, 1D4-tagged WT TRPV2 (Rattus norvegicus, UniProt Q9WUD2)
T1 construct: made in house; host or cells: S. cerevisiae BJ5457, isolated membranes
T1 sequence (Q9WUD2 1-761): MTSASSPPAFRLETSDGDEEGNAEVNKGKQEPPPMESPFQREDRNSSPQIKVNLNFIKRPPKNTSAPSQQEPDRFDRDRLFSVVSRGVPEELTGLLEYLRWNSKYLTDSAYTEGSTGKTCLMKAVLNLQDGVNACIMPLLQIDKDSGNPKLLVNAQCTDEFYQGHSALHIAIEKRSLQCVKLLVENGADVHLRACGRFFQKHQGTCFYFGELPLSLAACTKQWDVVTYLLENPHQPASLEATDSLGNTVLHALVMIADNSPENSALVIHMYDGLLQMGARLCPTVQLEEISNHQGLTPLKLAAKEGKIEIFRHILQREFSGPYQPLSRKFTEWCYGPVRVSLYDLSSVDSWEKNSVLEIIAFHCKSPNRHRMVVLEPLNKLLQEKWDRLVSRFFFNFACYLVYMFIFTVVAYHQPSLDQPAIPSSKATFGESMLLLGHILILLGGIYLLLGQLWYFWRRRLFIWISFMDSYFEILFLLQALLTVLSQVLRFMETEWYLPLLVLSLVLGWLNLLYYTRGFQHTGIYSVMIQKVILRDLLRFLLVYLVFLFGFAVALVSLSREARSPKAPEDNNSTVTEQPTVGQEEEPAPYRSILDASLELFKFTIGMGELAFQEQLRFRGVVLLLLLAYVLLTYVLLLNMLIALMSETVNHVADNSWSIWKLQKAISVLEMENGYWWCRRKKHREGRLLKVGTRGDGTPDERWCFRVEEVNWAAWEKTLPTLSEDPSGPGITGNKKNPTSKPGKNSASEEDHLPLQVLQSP
Assay: 3H-RTx binding to yeast membranes containing 1D4-tagged WT TRPV2
Text: To examine the strength of RTx binding to the TRPV2 channel, we undertook binding assays after expressing 1D4-tagged TRPV2 and TRPV2 QM in S. cerevisiae and isolating yeast membranes, similar to the experiments described above with TRPV1 (Figure 2). […] To examine the relative importance of the four residues for mediating RTx sensitivity in the TRPV2 QM, we constructed triple mutants and evaluated their sensitivity to RTx electrophysiologically.
The full-length TRPV1 and TRPV2 channels with 1D4 affinity tags ([…]) on their C-termini were cloned into the YEpHIS vector and expressed in the BJ5457 strain of S. cerevisiae using the strong constitutively active PMA1 promoter, as previously described ([Moiseenkova-Bell et al., 2008]). After 48 hr of expression at 30°C in YPD media, cells were harvested by centrifugation and re-suspended in PBS buffer, supplemented with complete protease inhibitor cocktail (Roche, Indianapolis, IN) and 4-amidinophenylmethanesulfonyl fluoride hydrochloride (APMSF) (Sigma-Aldrich, St. Louis, MO). Cells were broken by passing through an Avestin homogenizer at the pressure of 35 kpsi, cell lysate was cleared by centrifugation at 8,000 g for 15 min and membranes were isolated by ultracentrifugation at 190,000 g for 1 hr. […]
S. cerevisiae cells overexpressing TRPV1 constructs to be used in ligand binding assays on intact cells (Figure 1E,F) were grown as for small scale expression trials. 24 hr after protein induction cells were spun down at 4000g, the supernatant was removed and the pellet resuspended in 1x PBS, normalizing OD600 to 75 for each sample, and aliquoted for storage at -80°C. ^3H-RTx binding assays on cells were performed at 37°C as previously described ([Feng et al., 2015]), but where non-specific binding of RTx was measured using cells expressing GFP alone. […] Data for binding of RTx to membranes was corrected for non-specific binding, determined using either excess non-radioactive ligand or heat inactivation of the protein, as previously described ([Feng et al., 2015]). […]

## C=C(C)[C@]12C[C@@H](C)[C@@]34O[C@](Cc5ccccc5)(O[C@@H]1[C@@H]3C=C(COC(=O)Cc1ccc(O)c(OC)c1)C[C@]1(O)C(=O)C(C)=C[C@@H]41)O2 [RTx, resiniferatoxin]
  RTx binding in words: weak binding
37°C
  Hill slope (nH): 0.9
37°C, read-out: Kd of 3H-RTx binding (Hill fit)
  Kd: > 200 nM
